Patent publication US20190069544A1, “COMPOSITION COMPRISING A MEL, A FATTY ACID METHYL ESTER AND A NON-IONIC […] A HLB VALUE GREATER THAN OR EQUAL TO 12” (OLEON NV, priority 2016, published 2019)

Legend:
[1] = system: chenopodium plants (Chenopodium album); assay: Herbicide effectiveness: destruction of the vegetation, naked eye, 14 days after treatment; format: in vivo
Method: (§1) Composition 2 according to the invention prepared in Example 1 was used in combination with an herbicide active ingredient (glyphosate) in the treatment of chenopodium plants (Chenopodium album). The chenopodium plants used were at a 2 to 3 leaves stage (BBCH 12-13), and were grown in a phytotron at a temperature of 15° C. during the night and 20° C. during the day, with a photoperiod of 14 hours. The glyphosate used was non-formulated (technical ingredient, reference 4521, Sigma-Aldrich®). […]
Evaluation of the effectiveness was also carried out by observation of the plants with the naked eye 14 days after treatment. The effectiveness is evaluated in percentage of destruction of the vegetation, taking into account the size of the plants and the symptoms of phytotoxicity such as deformation of the leaves, the appearance of white patches and necrosis.

[2] = system: chenopodium plants (Chenopodium album); assay: Cell activity of plant roots by fluorescent markers after treatment; format: in vivo; settings: 24 to 48 h after treatment, 500 g/ha, 2% ammonium sulphate (FIG. 10)
Method: as §1
The evaluation of the effectiveness was carried out by measuring the cell activity of the roots of the plants 24 to 48 h after treatment. The cell activity is measured by staining the cells using fluorescent markers making it possible to distinguish: • the cells having a metabolic activity (living cells), which emit a green fluorescence; • the structures which emit a blue fluorescence; and • the dead cells, which emit a red fluorescence.
When the cell metabolic activity reduces, the green fluorescence reduces.

With O=C(O)CNCP(=O)(O)O [glyphosate] the “Phytotoxicity, in words” value ([1]; 14 days after treatment (FIGS. 11, 12)) was “not observed”, the “Effectiveness (average), percentage of destruction of the vegetation” value ([1]; 14 days after treatment, dose 500 g/ha, 2% ammonium sulphate, average of 4 pots of 4 plants) was 0% and the “Reduction in the intensity of the fluorescence in the cells of the roots (cell metabolic activity)” value [2] was “not observed”.
